Laboratory results taken from paper PMC4443670, “The C-terminal region of the motor protein MCAK controls its structure and activity through a conformational switch” (eLife, 2015).
“Also recorded” adds a separate entry of the source. Ends that are not written are not given here.

What was measured:
[1] = system: MCAK motor domain (His-M, His-NM); experiment: Resin-based (glutathione agarose) GST pull-down binding assay; set-up: species or system human; details: GST-CT constructs on glutathione agarose beads; purified His-M / His-NM; Coomassie-stained gel
Text: Kinesin-1 is regulated through an auto-inhibitory mechanism whereby one C-terminal tail binds at the interface of the two motors, such that it creates a second point of attachment in addition to the coiled coil region. This limits the head movement of one kinesin with respect to the other ([Stock et al., 1999]; [Hackney and Stock, 2000]; [Kaan et al., 2011]). We sought to test whether the C-terminal tail domain of MCAK, which has been proposed to regulate MCAK activity ([Moore and Wordeman, 2004]), was sufficient to interact with the motor domain. To do this, we expressed the N-terminal and motor region (residues 1–583, termed NM) or the motor region of MCAK along with the neck linker region (residues 181–583, termed M) as His-tagged proteins, and the C-terminal MCAK tail (residues 700–725, termed CT domain) as a GST fusion protein ([Moore and Wordeman, 2004]; [Hertzer et al., 2006]) (Figure 1A). […] We cannot however exclude a very tight interaction between two CT domains. […] Together, these experiments reveal that the MCAK CT domain interacts with its catalytic domain in solution.
Figure 4. Sequence requirement for the formation of a motor-CT tail complex. (A) Sequence alignment of the conserved CT domain of MCAK for various species alongside the Drosophila kinesin-13 Klp10A and human Kif2a. The conserved residues are highlighted in red. The three amino acids that are critical for binding to the motor domain are marked with a green star. (B) Sequence alignment of the C terminus of human Kif2a, Kif2b, and MCAK/Kif2c. Amino acid numbering is relative to the Kif2a sequence. The MCAK CT domain binding to the motor domain is boxed in green. The sequences were aligned using the program T-coffee (EBI) and formatted with ESPRIPT ([Gouet et al., 1999]). (C) Coomassie-stained gel showing a resin-based binding assay using glutathione agarose beads for purified His-M, binding to the GST-CT and GST-CT point mutants. (D) Size-exclusion chromatography elution profile of the motor domain alone (red dashes), motor incubated with the CT, CTS715E, CTE711A, E712A domains (cyan, green dashes, and purple, respectively). Bottom, coomassie-stained gel showing the size-exclusion chromatography elution of the motor incubated with the CTS715E and CTE711A, E712A domains (green and purple, respectively). DOI: http://dx.doi.org/10.7554/eLife.06421.008
Protein expression was induced by addition of 0.5 mM IPTG to BL21(DE3) Codon plus cells transformed with respective constructs at OD600 of 0.7–0.8 for 16 hr at 18°C. Cells were lysed by sonication in lysis buffer (50 mM Hepes, pH 7.4, 200 mM NaCl, 1 mM MgCl2, 1 mM PMSF, 1 mg/ml DNaseI, 2 mg/ml lysozyme, 10 mM Imidazole) and clarified at 20,000 rpm for 1 hr at 4°C. His-tagged and GST-tagged proteins were subsequently purified using Ni-NTA–agarose beads and glutathione-sepharose beads, respectively (GE Healthcare Life Sciences, UK)) according to the manufacturer's guidelines. MCAK constructs containing the motor domain were eluted with elution buffer (50 mM Hepes, pH 7.4, 200 mM NaCl, 1 mM MgCl2, 1 mM ATP, and 300 mM imidazole). Cleavage of the GST tag was performed using the GST-3C protease overnight at 4°C. Proteins were further purified using gel filtration chromatography pre-equilibrated in gel filtration buffer (For full-length MCAK: 100 mM HEPES, pH 7.3, 200 mM NaCl, 200 mM KCl, 1 mM DTT, 1 mM MgCl2, 1 mM Na-EGTA, 1 mM ATP; for the motor domain constructs: 50 mM HEPES, pH 7.2, 150 mM NaCl, 1 mM DTT, 1 mM MgCl2, 1 mM Na-EGTA, 1 mM ATP; for CT domain constructs: 50 mM HEPES, pH 7.2, 150 mM NaCl, 1 mM DTT, 1 mM MgCl2, 1 mM Na-EGTA). Analytical gel filtration chromatography was performed using either a Superdex 75 or a Superose 6 10/300 GL column (GE Healthcare, UK). To purify the CT domain alone, we cleaved GST and CT after gel filtration and a concentration step, and performed a glutathione affinity-purification third step to remove the GST and collect the CT domain. […]

[2] = system: taxol-stabilized microtubules; experiment: Microtubule cosedimentation assay, untreated microtubules; assay type: binding; details: 100 nM full-length MCAKS715E, 2 μM taxol-stabilized microtubules, increasing free CT or CTS715E; repeated three times
Procedure: Full-length MCAK complex was diluted in S buffer (50 mM NaCl, 20 mM Hepes pH 7.0) to 50 nM, in absence of nucleotide to prevent MCAK-dependent microtubule depolymerisation. To assemble an MCAK motor-CT domain complex, 50 nM of the motor domain and 100 nM of the CT domain were used. Microtubule binding assays were performed as described ([Cheeseman et al., 2006]) using equal volumes of taxol-stabilized microtubules in BRB80 and MCAK in S buffer. MCAK was quantified using anti-MCAK antibody against the C terminus of MCAK (709[…]720), generated by GL Biochem (Shangai) Ltd (China) or anti-His antibody to probe for the motor domain alone (GE Healthcare Lifesciences, UK). The data from at least three independent experiments were fitted to a modified Hill equation to determine the apparent Kd.

MCAK motor domain = target: T1, MCAK motor domain (Homo sapiens, UniProt Q99661); experiment: Analytical size-exclusion chromatography (motor-CT complex formation); assay type: binding; details: Superdex 75 or Superose 6 10/300 GL; Coomassie-stained gel of fractions
T1 construct: His-MCAK (183–583, M) and His-MCAK (1–583, NM) were subcloned in pET3aTr vector; made in house; host or cells: E. coli BL21(DE3) Codon plus
Text: Full-length MCAK is a dimer in solution ([Maney et al., 2001]). Therefore, we sought to test whether the CT domain interacts with one or two motor domains. To define the stoichiometry of this interaction, we subjected the complex to analytical size-exclusion chromatography. The motor domain alone behaves as a monomer and eluted with an apparent size of ∼45 kDa. […] Using SDS-PAGE analysis, we confirmed that the shift to a larger complex was due to the interaction of the motor domain with the CT domain (Figure 1C, bottom). […] The predicted masses for complexes of one and two CT domains bound to two motor domains are ∼94.2 and 97.7 kDa, respectively. […] Since the CT domain is unlikely to dimerize alone (Figure 1B), we conclude that the MCAK CT domain induces the dimerization of the motor domains cooperatively.
Protein expression was induced by addition of 0.5 mM IPTG to BL21(DE3) Codon plus cells transformed with respective constructs at OD600 of 0.7–0.8 for 16 hr at 18°C. Cells were lysed by sonication in lysis buffer (50 mM Hepes, pH 7.4, 200 mM NaCl, 1 mM MgCl2, 1 mM PMSF, 1 mg/ml DNaseI, 2 mg/ml lysozyme, 10 mM Imidazole) and clarified at 20,000 rpm for 1 hr at 4°C. His-tagged and GST-tagged proteins were subsequently purified using Ni-NTA–agarose beads and glutathione-sepharose beads, respectively (GE Healthcare Life Sciences, UK)) according to the manufacturer's guidelines. MCAK constructs containing the motor domain were eluted with elution buffer (50 mM Hepes, pH 7.4, 200 mM NaCl, 1 mM MgCl2, 1 mM ATP, and 300 mM imidazole). Cleavage of the GST tag was performed using the GST-3C protease overnight at 4°C. […] Protein concentrations were determined with a combination of Bradford protein assays and densitometry of Coomassie-stained gels relative to a BSA standard. […]

[3] = system: MCAK motor domain (Cys287); experiment: Covalent (disulphide) attachment of the CT domain to the motor domain; assay type: binding, human
Procedure: The GST-CTE712C and CTE712C domains were cross-linked to the motor domain by incubating them with the motor domain in a buffer containing 100 mM HEPES, pH 7.4, 150 mM NaCl but lacking DTT for 1 hr at 4°C. As a negative control the motor domain and the CTE712C domain were incubated in the identical buffer, supplemented with 5 mM DTT.

T1 sequence (Q99661 183-583): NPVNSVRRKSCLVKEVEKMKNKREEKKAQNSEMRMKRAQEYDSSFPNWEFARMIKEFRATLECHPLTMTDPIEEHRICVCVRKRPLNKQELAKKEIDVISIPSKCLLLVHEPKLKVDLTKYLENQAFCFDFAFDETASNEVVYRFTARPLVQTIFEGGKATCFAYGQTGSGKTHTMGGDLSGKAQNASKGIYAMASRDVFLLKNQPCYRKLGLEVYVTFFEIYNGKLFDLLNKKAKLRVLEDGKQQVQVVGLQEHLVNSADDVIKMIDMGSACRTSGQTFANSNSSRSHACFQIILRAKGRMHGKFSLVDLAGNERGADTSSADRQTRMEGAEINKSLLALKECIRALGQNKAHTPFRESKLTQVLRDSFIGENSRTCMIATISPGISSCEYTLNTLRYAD

CTE711A, E712A: CT domain point mutant E711A, E712A (VIKALRLAMQLAAQASRQISSKKRPQ; not fully specified)
binding to the motor domain of MCAK [1]: no longer bound to the motor domain of MCAK

CTI718A: CT domain point mutant I718A (VIKALRLAMQLEEQASRQASSKKRPQ; not fully specified)
binding to the motor domain of MCAK [1]: bound robustly

CTR716A: CT domain point mutant R716A (VIKALRLAMQLEEQASAQISSKKRPQ; not fully specified)
binding to the motor domain of MCAK [1]: bound robustly

CTS715E: CT domain point mutant S715E (VIKALRLAMQLEEQAERQISSKKRPQ; left off: GST, end not stated, cleaved)
effect of free CT domain on MCAKS715E binding to microtubules [2]: did not interfere with MCAKS715E binding to microtubules | binding to / co-migration with motor domain by gel filtration (MCAK motor domain): did not co-migrate

GST-CT: C-terminal MCAK tail (residues 700–725) as a GST fusion protein (VIKALRLAMQLEEQASRQISSKKRPQ; also: GST fusion partner not in chain)
binding to the motor domain of MCAK [1]: bound to both the NM and M domains of MCAK as a stable complex; also recorded: bound to the motor domain

GST-CTE712C: cleavable GST fusion of CTE712C domain (VIKALRLAMQLECQASRQISSKKRPQ; also: GST fusion partner not in chain)
binding to / co-migration with motor domain by gel filtration (MCAK motor domain): eluted as a single peak, earlier than the peak for the motor alone | efficiency of disulphide bridge formation with motor domain ([3]; absence of DTT, Coomassie-stained gel): ~50% | formation of covalent complex with motor ([3]; oxidizing conditions (without DTT), 100 mM HEPES pH 7.4, 150 mM NaCl, 1 hr at 4°C): formed a covalent complex

GST-CTS715A: GST fusion of CT domain S715A (VIKALRLAMQLEEQAARQISSKKRPQ; also: GST fusion partner not in chain)
binding to the motor domain of MCAK [1]: bound to the motor domain

GST-CTS715E: GST fusion of CT domain S715E (VIKALRLAMQLEEQAERQISSKKRPQ; also: GST fusion partner not in chain)
binding to the motor domain of MCAK [1]: did not interact with the motor domain
